Key:
mGAT1 [1] = target: T1, mGAT1 (Mus musculus, UniProt P31648); assay: MS Binding Assay with NO711 as native MS marker; details: for remaining activity at 100 µM: in presence of 100 μM compound, read-out: remaining specific NO711 binding (mGAT1); for Ki: MS Binding Assay, NO711 marker, pKi±SEM, read-out: pK i mGAT1 (converted)
T1 construct: expressed in transfected cells; host or cells: HEK293
Method: (§1) For compounds with pIC50 ([^3H]GABA uptake assay) or pK i (MS Binding Assays) values close to or above 5.0, these experiments were repeated twice and SEM have been calculated.
MS Binding Assays: The MS Binding Assays were performed with mGAT1 membrane preparations obtained from a stably mGAT1 expressing HEK293 cell line and NO711 as unlabeled marker in competitive binding experiments as previously described in detail.34 In short, test compounds were investigated at 7 concentrations in presence of 10 nM NO 711 in competition experiments. Non specific binding was defined as binding remaining in the presence of 100 mM GABA. Incubation was terminated by transfer of 200 μL per well onto a 96‐well filter plate (Acroprep, glass fibre, 1.0 μm, 350 μL, Pall, Dreieich, Germany) with a 12 channel pipette. After rapid vacuum‐filtration the filters were washed with ice cold 0.9 % NaCl (5×150 μL) and dried at 50 °C for 60 min. Afterwards, the filters were eluted with 100 μL methanol containing [^2H10]NO711 (1.4 nM) as internal standard per well into a deep‐well plate by application of vacuum. This step was repeated twice resulting in a total elution volume of 300 μL. Finally, a volume of 130 μL ammonium formate buffer (10 mM, pH 7.0) was added per well and the generated samples analyzed by LC‐ESI‐MS/MS using a API 3200 as described in detail previously.40

mGAT1 [2] = target: T1, mGAT1; assay: [^3H]GABA uptake assay, HEK293 cells expressing mGAT1; type: cell-based; details: HEK293; in presence of 100 μM compound
Method: as §1
(§2) [^3H]GABA uptake assays: The [^3H]GABA uptake assays were performed according to Kragler et al.33 Cells were grown in 150 cm^2 plates to a confluence of 70–90 % up to passage 25. After detachment the cells were centrifuged 5 min at 500×g, washed for three times in phosphate buffered saline and, finally, resuspended in Krebs buffer (2.5 mM CaCl2, 1.2 mM MgSO4, 1.2 mM KH2PO4, 4.7 mM KCl, 11 mM glucose, 25 mM Tris, 119 mM NaCl, pH 7.2). The uptake assays were performed with aliquots of the resulting cell suspension (about 100000–200000 cells per well) in a total volume of 250 μl in 96 well 2.2 mL deep well plates. The cells were equilibrated for 25 min in Krebs buffer in the presence of the test compound at 37 °C in a gently shaking water bath. […] After addition of 25 μl of a solution containing [^3H]GABA (2.22 TBq/mmol, ARC, St Louis, MO, USA) and unlabeled GABA in Krebs (final concentration 8 nM [^3H]GABA and 32 nM unlabeled GABA for mGAT1, mGAT3, mGAT4 and 20 nM [^3H]GABA and 20 nM unlabeled GABA for mGAT2) the cells were incubated for further 4 min (mGAT1, mGAT3, mGAT4) or 10 minutes (mGAT2), respectively. The incubation was stopped by filtration through Sartorius MGC micro glass fiber filters pre‐soaked for 1 h in 0.9 % NaCl by means of a Brandell MWXR‐96TI cell harvester (Brandell, Gaithersburg, MD, USA) under reduced pressure. The filters were rinsed two times with cold 0.9 % NaCl and subsequently transferred to 96 well sample plates (Perkin Elmer LAS, Boston, MA, USA). After addition of 200 μl Rotiszint Eco Plus (Roth, Karlsruhe, Germany) per well the radioactivity was determined in a microbeta liquid scintillation counter (Perkin Elmer LAS, Boston, MA, USA). Non‐specific uptake was determined in presence of 10 mM GABA for mGAT1, mGAT3 and mGAT4 or 100 mM GABA for mGAT2, respectively. The results are expressed as means±S.E.M. of at least three separate experiments, each carried out in triplicate.

mGAT2 = target: T2, mGAT2 (Mus musculus, UniProt P31651); assay: [^3H]GABA uptake assay, HEK293 cells expressing mGAT2; type: cell-based; details: HEK293; in presence of 100 μM compound
T2 construct: expressed in transfected cells; host or cells: HEK293
T2 sequence (P31651 1-614): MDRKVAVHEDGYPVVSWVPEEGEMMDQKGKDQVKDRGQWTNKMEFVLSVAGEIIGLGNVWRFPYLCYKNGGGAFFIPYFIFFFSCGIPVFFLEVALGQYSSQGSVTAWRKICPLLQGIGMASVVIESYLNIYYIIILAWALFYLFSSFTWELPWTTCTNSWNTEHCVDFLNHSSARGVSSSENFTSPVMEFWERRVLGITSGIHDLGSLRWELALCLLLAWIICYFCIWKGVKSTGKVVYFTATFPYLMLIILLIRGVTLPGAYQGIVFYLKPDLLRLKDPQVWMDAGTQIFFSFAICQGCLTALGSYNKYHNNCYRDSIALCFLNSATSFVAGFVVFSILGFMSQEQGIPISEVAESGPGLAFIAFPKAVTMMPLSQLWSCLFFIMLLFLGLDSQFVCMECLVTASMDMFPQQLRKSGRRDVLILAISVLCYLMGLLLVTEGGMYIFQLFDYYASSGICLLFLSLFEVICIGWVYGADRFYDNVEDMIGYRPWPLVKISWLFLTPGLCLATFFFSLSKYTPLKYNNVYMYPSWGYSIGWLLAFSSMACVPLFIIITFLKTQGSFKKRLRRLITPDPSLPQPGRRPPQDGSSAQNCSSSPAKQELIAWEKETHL
Method: as §1, §2

mGAT3 = target: T3, mGAT3 (Mus musculus, UniProt P31649); assay: [^3H]GABA uptake assay, HEK293 cells expressing mGAT3; type: cell-based; details: for remaining activity at 100 µM: HEK293, in presence of 100 μM compound
T3 construct: expressed in transfected cells; host or cells: HEK293
T3 sequence (P31649 1-602): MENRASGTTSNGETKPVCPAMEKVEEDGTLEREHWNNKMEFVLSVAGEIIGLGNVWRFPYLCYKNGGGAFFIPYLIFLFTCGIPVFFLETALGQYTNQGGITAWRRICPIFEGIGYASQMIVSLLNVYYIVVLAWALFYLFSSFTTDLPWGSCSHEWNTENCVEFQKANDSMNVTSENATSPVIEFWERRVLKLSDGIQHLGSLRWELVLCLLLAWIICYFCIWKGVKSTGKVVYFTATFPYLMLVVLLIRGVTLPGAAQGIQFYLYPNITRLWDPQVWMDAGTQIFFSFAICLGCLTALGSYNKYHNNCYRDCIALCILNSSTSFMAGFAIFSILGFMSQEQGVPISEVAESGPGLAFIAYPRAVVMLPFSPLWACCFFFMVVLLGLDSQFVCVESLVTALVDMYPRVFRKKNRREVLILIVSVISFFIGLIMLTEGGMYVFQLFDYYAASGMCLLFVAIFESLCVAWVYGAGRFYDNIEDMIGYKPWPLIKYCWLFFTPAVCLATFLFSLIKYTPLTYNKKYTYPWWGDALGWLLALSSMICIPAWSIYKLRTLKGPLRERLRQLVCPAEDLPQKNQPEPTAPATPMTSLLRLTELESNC
Method: as §1, §2

mGAT4 = target: T4, mGAT4 (Mus musculus, UniProt P31650); assay: [^3H]GABA uptake assay, HEK293 cells expressing mGAT4; type: cell-based; details: for remaining activity at 100 µM: HEK293, in presence of 100 μM compound; for IC50: [^3H]GABA uptake, pIC50±SEM
T4 construct: expressed in transfected cells; host or cells: HEK293
T4 sequence (P31650 1-627): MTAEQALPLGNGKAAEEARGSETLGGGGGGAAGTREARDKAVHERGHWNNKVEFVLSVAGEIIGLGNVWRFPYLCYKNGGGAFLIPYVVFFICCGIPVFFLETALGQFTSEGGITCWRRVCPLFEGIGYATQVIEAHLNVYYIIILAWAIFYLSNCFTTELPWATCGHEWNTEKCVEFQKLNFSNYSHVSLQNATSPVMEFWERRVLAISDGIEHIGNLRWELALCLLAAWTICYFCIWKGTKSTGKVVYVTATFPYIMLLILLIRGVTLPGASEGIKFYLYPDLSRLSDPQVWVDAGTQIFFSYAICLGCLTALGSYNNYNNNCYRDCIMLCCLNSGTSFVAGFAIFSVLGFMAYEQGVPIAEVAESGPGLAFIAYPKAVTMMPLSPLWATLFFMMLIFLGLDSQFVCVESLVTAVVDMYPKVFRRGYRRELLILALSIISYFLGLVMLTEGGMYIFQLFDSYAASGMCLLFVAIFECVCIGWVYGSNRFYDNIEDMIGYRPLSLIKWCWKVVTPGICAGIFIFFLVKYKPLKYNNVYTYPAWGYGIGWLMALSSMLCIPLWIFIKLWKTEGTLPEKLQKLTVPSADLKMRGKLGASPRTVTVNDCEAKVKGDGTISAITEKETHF
Method: as §1, §2

Row | remaining activity at 100 µM (mGAT1 [1]) [%] | remaining activity at 100 µM (mGAT1 [2]) [%] | remaining activity at 100 µM (mGAT2) [%] | IC50 (mGAT3; [^3H]GABA uptake, pIC50±SEM) [µM] | remaining activity at 100 µM (mGAT4) [%] | remaining activity at 100 µM (mGAT3) [%] | IC50 (mGAT4) [µM] | Ki (mGAT1 [1]) [µM] | Structure (SMILES)
1 | 87.5 | 70.3 | 65 | 95.5 | 51.4 | – | – | – | CCOC(=O)C1CCCN(CCOC(c2ccc(COC)cc2)(c2ccc(COC)cc2)c2ccc(COC)cc2)C1 (racemic) [12 i, rac‐ Ethyl 1‐(2‐{tris[4‐(methoxymethyl)phenyl]methoxy}ethyl)piperidine‐3‐carboxylate]
2 | 102 | 52.3 | 73.5 | – | 63.9 | 49.7 | – | – | CCOC(=O)C1CCCN(CCOC(c2ccc(CNc3ccc(C(=O)O)cc3)cc2)(c2ccc(OC)cc2)c2ccc(OC)cc2)C1 (racemic) [12 t, rac‐ 4‐{[4‐({2‐[3‐(Ethoxycarbonyl)piperidin‐1‐yl]ethoxy}bis{4‐methoxy‐phenyl}methyl)benzyl]amino}benzoic acid]
3 | 87 | 79.6 | 96.1 | – | 65.2 | 82.1 | > 100 | – | COc1ccc(C(OCCN2CCCC(C(=O)O)C2)(c2ccc(OC)cc2)c2ccc(C(N)=O)cc2)cc1 (racemic) [5 j, rac ‐1‐{2‐[(4‐Carbamoylphenyl)bis(4‐methoxyphenyl)methoxy]ethyl}‐piperidine‐3‐carboxylic acid]
4 | 90.8 | 89.1 | 92.6 | – | 78.2 | 64.1 | – | – | CCOC(=O)C1CCCN(CCOC(C(=O)OC)(c2ccc(OC)cc2)c2ccc(OC)cc2)C1 (racemic) [12 k, rac‐ Ethyl 1‐{2‐[2‐methoxy‐1,1‐bis(4‐methoxyphenyl)‐2‐oxoethoxy]ethyl}‐piperidine‐3‐carboxylate]
5 | 84.6 | 72.9 | 66.4 | – | 84.2 | 55.2 | – | – | CCOC(=O)C1CCCN(CCOC(c2ccc(OC)cc2)(c2ccc(OC)cc2)c2ccc(C(C)=O)cc2)C1 (racemic) [12 b, rac‐ Ethyl 1‐{2‐[(4‐acetylphenyl)bis(4‐methoxyphenyl)methoxy]ethyl}‐piperidine‐3‐carboxylate]
6 | – | 84.9 | 72.9 | – | – | 81.8 | 26.3 | 93.3 | COc1ccc(C(OCCN2CCCC(C(=O)O)C2)(c2ccc(OC)cc2)c2ccc3nccn3c2)cc1 (racemic) [5 d, rac‐ 1‐(2‐{Imidazo[1,2‐a]pyridin‐6‐ylbis(4‐methoxyphenyl)methoxy}‐ethyl)piperidine‐3‐carboxylic acid]
7 | 77 | 80.7 | 77 | – | – | 61.1 | 45.7 | – | COc1ccc(C(OCCN2CCCC(C(=O)O)C2)(c2ccc(CNC(C)(C)C(=O)O)cc2)c2ccc(OC)cc2)cc1 (racemic) [5 q, rac ‐1‐{2‐[(4‐{[(2‐Carboxypropan‐2‐yl)amino]methyl}phenyl)bis(4‐methoxyphenyl)methoxy]ethyl}piperidine‐3‐carboxylic acid]
8 | 62.1 | 67.9 | 78 | – | 82 | 77.1 | > 100 | – | COc1ccc(C(OCCN2CCCC(C(=O)O)C2)(c2ccc(OC)cc2)c2ccc(S(=O)(=O)N(C)C)cc2)cc1 (racemic) [5 c, rac ‐1‐(2‐{[4‐(N,N‐dimethylsulfamoyl)phenyl]bis[4‐methoxyphenyl]‐methoxy}ethyl)piperidine‐3‐carboxylic acid]
9 | – | 69.5 | 62.5 | – | 92 | 80.7 | – | 32.4 | COc1ccc(C(O)(CCCN2CCCC(C(=O)O)C2)c2ccc(OC)cc2)cc1 (racemic) [5 l, rac ‐1‐[4‐Hydroxy‐4,4‐bis(4‐methoxyphenyl)butyl]piperidine‐3‐carboxylic acid]
10 | 104 | 79.3 | 70.4 | – | 73.8 | 65 | – | – | CCOC(=O)C1CCCN(CCCC(O)(c2ccc(OC)cc2)c2ccc(OC)cc2)C1 (racemic) [12 l, rac ‐Ethyl 1‐[4‐hydroxy‐4,4‐bis(4‐methoxyphenyl)butyl]piperidine‐3‐carboxylate]

Source: PMC7317212 (Chemmedchem, 2020)
